# Assay results from patent US5506213A, “Adminstration of 2'-halo-2'-deoxy adenosine to treat inflammatory bowel disease” (priority 1994, dated 1996).
# Assays:
# [1] = system: Adenocarcinoma 755 (Ad755); conditions: cited from earlier work
# [2] = system: adenosine deaminase; conditions: cited from earlier work
# [3] = system: HIV; assay: Inhibition of p24 (gag) production of HIV from MDM cells, 3-day assay; type: cell-based; conditions: 0.1-100 μM
# [4] = system: HIV; conditions: cited from earlier work
# [5] = system: HIV; conditions: cultured human T lymphoblasts; cited from earlier work
# [6] = system: monocytes; assay: Direct comparative cytotoxicity assay (Table II), monocytes; type: cell-based, human; conditions: Monocytes
# Source text: (§1) The two compounds, CdA and CAFdA, were also compared for in vitro activity against another group of human cell lines in a direct comparative assay.
# (§2) ^1 Concentration that produced 50 percent reduction in all numbers
# [7] = system: monocyte-like cell line HL-60; assay: cells; conditions: Homo sapiens
# Experimental: (§5) Seven different cell lines were treated with varying concentrations of 2-chloro-9,1'-beta-2'-deoxy-2'-fluoro-D-arabinofuranosyladenine (CAFdA) to determine percent viability. CAFdA concentrations ranging from 0 to about 260 nM were used to treat each cell line in vitro.
# [8] = system: monocyte-like cell line U937; assay: cells; conditions: Homo sapiens, U-937
# Experimental: as §5
# [9] = system: CEM, Increased 5'-nucleoside; assay: Direct comparative cytotoxicity assay (Table II), CEM increased 5'-nucleoside; type: cell-based, human; conditions: CEM, Increased 5'-nucleoside
# Source text: as §1, §2
# (§3) ^2 CEM cells are T lymphoblasts; DHL9 cells are lymphoblasts.
# [10] = system: Peripheral blood lymphocytes; assay: Direct comparative cytotoxicity assay (Table II), peripheral blood lymphocytes; type: cell-based, human; conditions: Peripheral blood lymphocytes
# Source text: as §1, §2
# [11] = system: delayed-type hypersensitivity (DTH) response; assay: Delayed-type hypersensitivity to ovalbumin in guinea pigs, oral and intraperitoneal treatment; type: in vivo, guinea pig; conditions: dexamethasone 5 mg/kg, CdA or CAFdA 1 mg/kg, 24 and 48 hours, p<0.01
# Experimental: (§4) Delayed-type hypersensitivity (DTH) is a cell-mediated immune response that typically takes longer than 12 hours to develop. In the guinea pig, a DTH reaction to an antigen can be established by first immunizing the animal with the antigen in an adjuvant such as Freund's complete adjuvant. Subsequent intradermal injection of the antigen causes no change for at least 10 hours, after which there is a gradual increase in erythema and swelling in response to antigen injection. This response peaks about at about 24 hours after challenge, then gradually subsides.
# Histologically, the inflammatory response is characterized by intense inundation of the site with mononuclear cells, of which about half are lymphocytes and the other half monocytes. DTH is therefore an indicator of a monocyte-mediated immune reaction.
# In one study, guinea pigs were sensitized to ovalbumin in adjuvant. The animals were then treated either orally or intraperitoneally with saline (control), dexamethasone (5 mg/kg), CdA (1 mg/kg) or CAFdA (1 mg/kg). The animals were then injected with ovalbumin intradermally to elicit the DTH response. The mean area of the swelling size was measured for each animal (nine or ten animals were treated for each protocol).
# [12] = system: CEM, wild type; assay: Direct comparative cytotoxicity assay (Table II), CEM wild type; type: cell-based, human; conditions: CEM, wild type
# Source text: as §1, §2, §3
# [13] = system: T cell line Molt-4; assay: cells; conditions: Homo sapiens
# Experimental: as §5
# [14] = system: DHL9, Increased ribonucleotide reduction; assay: Direct comparative cytotoxicity assay (Table II), DHL9 increased ribonucleotide reduction; type: cell-based, human; conditions: DHL9, Increased ribonucleotide reduction
# Source text: as §1, §2, §3
# [15] = system: DHL9, wild type; assay: Direct comparative cytotoxicity assay (Table II), DHL9 wild type; type: cell-based, human; conditions: DHL9, wild type
# Source text: as §1, §2, §3
# [16] = system: T cell line CEM; assay: cells; conditions: Homo sapiens
# Experimental: as §5
# [17] = system: monocyte-like cell line THP-1; assay: cells; conditions: Homo sapiens
# Experimental: as §5
# [18] = system: antigen-induced arthritis; assay: Antigen-induced arthritis in rabbits; type: in vivo; conditions: CdA 1 mg/kg, tepoxalin 25 mg/kg, naproxen 5 mg/kg
# Experimental: Antigen-induced arthritis in rabbits is an animal model of rheumatoid arthritis. In this model, the rabbits are sensitized to an antigen such as ovalbumin or methylated bovine serum albumin in an adjuvant. Several weeks later, the same antigen is injected directly into the joints of the animal. […] Pettipher et al., Br. J. Exp. Path., 69:113-122 (1988).
# Rabbits with antigen-induced arthritis were treated with CdA (1 mg/kg), tepoxalin (25 mg/kg) or naproxen (5 mg/kg).
# [19] = pH value of 1 at 37 degrees C.; cited from earlier work
# [20] = system: delayed-type hypersensitivity (DTH) reaction; assay: Delayed-type hypersensitivity to ovalbumin in guinea pigs, different dosages of CdA; type: in vivo, guinea pig; conditions: dexamethasone 5 mg/kg; 24 and 48 hours post-challenge; p<0.01
# Experimental: as §4
# In another study, the effects of different dosages of CdA on the DTH reaction were examined. Guinea pigs sensitized to ovalbumin were treated with saline (control), dexamethasone (5 mg/kg), and CdA at 1 mg/kg or 0.1 mg/kg. Three days after treatment, the animals were challenged with ovalbumin intradermally. The areas of the skin lesions were measured at 6, 24, and 48 hours after challenge.
# [21] = Homo sapiens, 120 h, read-out: ID50: concentration that produced 50 percent reduction in all numbers after five days
compound,measurement,setting,value
Nc1nc(F)nc2c1ncn2[C@@H]1O[C@H](CO)[C@@H](O)[C@H]1O [2-fluoroadenosine],tolerated dose,[1]; C57 black mice implanted with Ad755,about 1 milligram per kilogram of body weight
same,antitumor activity at the tolerated level,[1]; against Ad755 as well as leukemia L1210 and the Erlich ascites tumor,inactive
same,substrate behaviour toward adenosine deaminase,[2],negligible activity
"Cc1cn([C@H]2C[C@H](N=[N+]=[N-])[C@@H](CO)O2)c(=O)[nH]c1=O [AZT, 3'-azido-3'-deoxythymidine]",inhibition of p24 (gag) production,[3],none of those compounds provided any inhibition
same,virus isolation rates from peripheral blood cells,[4]; clinical trials with AZT,no effect
same,CD4 (T4) peripheral blood cell counts,[4]; patients with AIDS or AIDS-related complex,elevation of CD4 (T4) peripheral blood cell counts
same,tolerability,[4]; patients with AIDS or AIDS-related disease complexes,well tolerated
same,replication of HIV,[5],blocked the replication of HIV
"Nc1nc(Cl)nc2c1ncn2[C@@H]1O[C@H](CO)[C@@H](O)[C@@H]1F [CAFdA, 2-chloro-9,1'-beta-2'-deoxy-2'-fluoro-D-arabinofuranosyladenine]",IC50,"[6]; Homo sapiens, Monocyte, 120 h, read-out: ID50: concentration that produced 50 percent reduction in all numbers after five days",47 nM
same,ID50 ratio CAFdA / CdA,[6],2.1
same,viability at 0.05 µM,[7],≤ 60%
same,viability at 0.06 µM,[7],< 20%
same,viability at 0.13 µM,[7],< 10%
same,viability at 0.06 µM,[8],< 20%
same,viability at 0.13 µM,[8],< 10%
same,ID50 ratio CAFdA / CdA,[9],2.1
same,IC50,"[10]; Homo sapiens, Lymphocyte, 120 h, read-out: ID50: concentration that produced 50 percent reduction in all numbers after five days",18 nM
same,ID50 ratio CAFdA / CdA,[10],1.9
same,swelling after ovalbumin challenge compared to saline control,[11]; intraperitoneal,significant inhibition of swelling
same,swelling after ovalbumin challenge compared to saline control,[11]; oral,significant inhibition of swelling
same,ID50 ratio CAFdA / CdA,[12],3.1
same,IC50,[12]; [21],67 nM
same,viability at 0.06 µM,[13],< 20%
same,viability at 0.13 µM,[13],< 10%
same,ID50 ratio CAFdA / CdA,[14],15.
same,IC50,[14]; [21],6000 nM
same,ID50 ratio CAFdA / CdA,[15],1.9
same,IC50,[15]; [21],150 nM
same,viability at 0.05 µM,[16],≤ 60%
same,viability at 0.06 µM,[16],< 20%
same,viability at 0.13 µM,[16],< 10%
same,viability at 0.05 µM,[17],≤ 60%
same,viability at 0.06 µM,[17],< 20%
same,viability at 0.13 µM,[17],< 10%
"COc1ccc2cc([C@H](C)C(=O)O)ccc2c1 [Naproxen, naproxen, reference compound]",pathological examination of joints compared to untreated controls,[18],appeared to exacerbate the inflammation and tissue destruction
"Nc1ncnc2c1ncn2[C@H]1CC[C@@H](CO)O1 [ddA, 2',3'-dideoxyadenosine]",inhibition of p24 (gag) production,[3],none of those compounds provided any inhibition
same,substrate behaviour toward adenosine deaminase,[2],known substrate for adenosine deaminase
same,half-time,[19],35 s
"C[C@@H]1C[C@H]2[C@@H]3CCC4=CC(=O)C=C[C@]4(C)[C@@]3(F)[C@@H](O)C[C@]2(C)[C@@]1(O)C(=O)CO [dexamethasone, reference compound]",swelling after ovalbumin challenge compared to saline control,[11]; intraperitoneal,significant inhibition of swelling
same,swelling after ovalbumin challenge compared to saline control,[11]; oral,significant inhibition of swelling
same,swelling compared to control saline treated animals,[20],effective at inhibiting swelling
